The structures appear in SMILES notation. “Also recorded” adds a separate entry of the source.

Two molecules from patent US10899790B2, “Method for modifying T cell population” (OSAKA UNIVERSITY, priority 2016, dated 2021) can be followed below.

The target in test [1] is T1, Retinol Dehydrogenase 10 (RDH10) (Homo sapiens, UniProt Q8IZV5).
T1 construct: expressed in transfected cells; host or cells: 293T (microsomal fraction)
T1 sequence (Q8IZV5 1-341): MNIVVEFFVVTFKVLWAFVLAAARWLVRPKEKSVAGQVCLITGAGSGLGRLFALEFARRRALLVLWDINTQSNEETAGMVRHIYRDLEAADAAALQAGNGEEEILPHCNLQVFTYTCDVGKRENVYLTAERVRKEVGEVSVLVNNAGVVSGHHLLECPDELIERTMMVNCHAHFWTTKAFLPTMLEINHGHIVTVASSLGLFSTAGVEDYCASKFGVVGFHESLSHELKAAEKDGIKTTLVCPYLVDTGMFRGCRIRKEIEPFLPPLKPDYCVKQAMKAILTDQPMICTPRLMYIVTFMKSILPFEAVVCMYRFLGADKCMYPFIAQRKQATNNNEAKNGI
The experiment in a line: Inhibition of RDH10 enzyme activity (microsomal fraction of RDH10-expressed 293T, all-trans retinol to all-trans retinal, HPLC). Conditions: final concentration of 20 μM; relative to DMSO control (FIG. 1). In kind it is biochemical. Here is the method: All-trans retinol, BSA, and NAD (nicotinamide adenine dinucleotide) as a coenzyme were added to a buffer for reaction (90 mM potassium phosphate buffer, pH7.4, 40 mM KCl) so as to have final concentrations of 10 μM, 10 μM, and 1 mM respectively. This mixture was taken in siliconized tubes by 200 μl for each, the microsomal fractions separated from 293T and RDH10-expressed 293T were added to separate tubes by 10 μl for each, and the mixtures were allowed to react at 37° C. for 15 minutes. After 200 μl of methanol was added to the reaction mixtures to stop the reaction, retinoid was extracted using hexane and concentrated. The concentrated retinoid was dissolved in 150 μl of acetonitrile, separated by HPLC, and subjected to the detection of ultraviolet light absorption at a wavelength of 350 nm, whereby the substrate (all-trans retinol) and the product (all-trans retinal) were detected. In addition, standard samples (all-trans retinol and all-trans retinal) were separated by HPLC and the retention times of the respective standard samples were determined in advance. The solvent for HPLC was acetonitrile: 50 mM ammonium acetate=75:25. As the separation column, Syhergi 4 μm Hydro-RP 80A (manufactured by Phenomenex) was used. In addition, the flow rate was 2.0 ml/min. The RDH10 enzyme activity was calculated by reading the amount of product per fixed time from the chart of HPLC.
All-trans retinol, BSA, and NAD (nicotinamide adenine dinucleotide) as a coenzyme were added to a buffer for reaction (90 mM potassium phosphate buffer, pH7.4, 40 mM KCl) so as to have final concentrations of 10 μM, 10 μM, and 1 mM respectively. This mixture was taken in siliconized tubes by 200 μl for each, the microsomal fraction separated from RDH10-expressed 293T was added to separate tubes by 10 μl for each. The RDH10 inhibitor dissolved in DMSO was added to each tube so as to have a final concentration of 20 μM, and the same amount of DMSO was added to the control tube. The mixture was allowed to react at 37° C. for 15 to 30 minutes, 200 μl of methanol was added to the reaction mixtures, and then retinoid was extracted using hexane and concentrated. The concentrated retinoid was dissolved in 150 μl of acetonitrile, separated by HPLC, and subjected to the detection of ultraviolet light absorption at a wavelength of 350 nm, whereby the substrate (all-trans retinol) and the product (all-trans retinal) were detected. In addition, standard samples (all-trans retinol and all-trans retinal) were separated by HPLC and the retention times of the respective standard samples were determined in advance. The solvent for HPLC was acetonitrile: 50 mM ammonium acetate=75:25. As the separation column, Syhergi 4 μm Hydro-RP 80A (manufactured by Phenomenex) was used. The flow rate was 2.0 ml/min.
The enzyme activity was determined by the waveform area of the product (all-trans retinal) with respective to the waveform area of the non-reacted substrate (all-trans retinol), and the relative value with respect to the enzyme activity in the control is illustrated in FIG. 1. The error bars indicate SD (standard deviation).

Test [2] deals with mouse cancer cell line EG7 expressing OVA. The experiment in a line: Effect in vivo: EG7 tumor-bearing B6 mice with transferred OT-1 cells. Set-up: species or system C57BL/6J mouse. Conditions: for frequency of CD45.1+OT-1 cells (OVA specific CD8+ cells) in peripheral blood / expression of CD62L and CD127 in CD45.1+OT-1 cells: 100 μg/mouse tail vein; for frequency of CD45.1+OT-1 cells (OVA specific CD8+ cells) in peripheral blood: 20th day after tumor transplantation (FIG. 5); for expression of CD62L and CD127 in CD45.1+OT-1 cells: 20th day, flow cytometry (FIG. 6); for proliferation of tumor in vivo / tumor volume: 100 μg/mouse through the tail vein, 3 times every other day; for tumor volume: 21st day after transplantation (FIG. 4). The source says:
A mouse cancer cell line EG7 (2×10^6) expressing OVA (chicken ovalbumin) was subcutaneously injected into C57BL/6J mouse (B6 mouse) to form a tumor. Five days later, the mouse in which a tumor was formed was irradiated with radiation at 3 Gy, then T cell-receptive OTCD8^+T cells (OT-1 cells) specific for OVA antigen were isolated from CD45.1 positive OT-I transgenic mouse, and this was transferred into the mouse by 2×10^5 through the tail vein. A total of 3 times every other day from the next day, RDH10 inhibitors (Compound No. 1 (RDHI-012) and Compound No. 2 (RDHI-013)) were administered to the mouse at 100 μg/mouse for each through the tail vein. The RDH10 inhibitors were administered to the mouse by being previously stocked in DMSO at 100 μg/50 μl and adjusted to have a total volume of 200 μl by the addition of 150 μl of PBS.
In the experiment, tumor volumes were measured over time. The frequency of OT-1 cells (OVA specific CD8^+T cells) in peripheral blood on the 20th day was measured. Furthermore, the expression intensity of cell surface antigen molecules (CD62L, CD127), which were markers of memory T cells, was analyzed.
The time course in the mean value of tumor volume after tumor transplantation is illustrated in FIG. 4. The error bars indicate the standard error. The tumor volume was determined by major axis×minor axis×height/2.
On the 20th day after the tumor transplantation, the frequency of transferred OT-I cells contained in peripheral blood was analyzed by flow cytometry. OT-I cells were CD45.1 positive and thus were clearly distinguishable from the host B6 mouse (CD45.2 positive)-derived T cells. The representative results are illustrated in FIG. 5.
The expression intensities of CD62L and CD127 in OT-I cells illustrated in FIG. 5 were analyzed by flow cytometry. The mean value and standard error of each expression intensity are illustrated in FIG. 6.

On to `COC(=O)[C@@]1(C)CC[C@]2(C)CC[C@]3(C)C(=CC(=O)[C@@H]4[C@@]5(C)CCC(N)C(C)(C)[C@@H]5CC[C@]43C)[C@@H]2C1` (stereo partly drawn) [Compound No. 2, (2S,4aS,6aS,6bR,8aR,12aS,12bR,14bR)-methyl 10-amino-2,4a,6a,6b,9,9,12a-heptamethyl-13-oxo-1,2,3,4,4a,5,6,6a,6b,7,8,8a,9,10,11,12,12a,12b,13,14b-icosahydropicene-2-carboxylate], for which the “RDH10 enzyme activity inhibitory action” value in test [1] was “relatively potent; also recorded: potent RDH10 enzyme activity inhibitory action”. Further, in test [2], the “frequency of CD45.1+OT-1 cells (OVA specific CD8+ cells) in peripheral blood” value was “amplify CD45.1^+OT-1 cells”; the “expression of CD62L and CD127 in CD45.1+OT-1 cells” value is “accelerate the expression of CD62L and CD127”; the “proliferation of tumor in vivo” value is “suppress the proliferation of tumor in vivo”; the tumor volume result was “decreased to one several tenths to one several hundredths”.
Consider `COC(=O)[C@@]1(C)CC[C@]2(C)CC[C@]3(C)C(=CC(=O)[C@@H]4[C@@]5(C)CCC(N)C(C)(C)[C@@H]5CC[C@]43C)[C@H]2C1` (stereo partly drawn) [Compound No. 1, (2S,4aS,6aS,6bR,8aR,12aS,12bR,14bS)-methyl 10-amino-2,4a,6a,6b,9,9,12a-heptamethyl-13-oxo-1,2,3,4,4a,5,6,6a,6b,7,8,8a,9,10,11,12,12a,12b,13,14b-icosahydropicene-2-carboxylate], for which the “RDH10 enzyme activity inhibitory action” value in test [1] is “relatively potent; also recorded: potent RDH10 enzyme activity inhibitory action”. Moreover, in test [2], the “frequency of CD45.1+OT-1 cells (OVA specific CD8+ cells) in peripheral blood” value was “amplify CD45.1^+OT-1 cells”; the “expression of CD62L and CD127 in CD45.1+OT-1 cells” value is “accelerate the expression of CD62L and CD127”; the “proliferation of tumor in vivo” value is “suppress the proliferation of tumor in vivo”; the tumor volume result is reported as “decreased to one several tenths to one several hundredths”.
